Measured values from patent US20250154089A1, “METHODS FOR PREPARING OXYRESVERATROL AND DERIVATIVES THEREOF” (Caliway Biopharmaceuticals Co., Ltd., priority 2023, published 2025).

Tested on: melanin production induced by α-MSH
Experiment: Inhibition of melanin production induced by α-MSH
Assay type: cell-based
Conditions: for Melanin content (%), Mean: α-MSH 0.1 μM 24 hours + TA treat 24 hours, 0.2% DMSO, α-MSH group = 100.0
Excerpt: This example explores the bioactivity of the synthesized oxyresveratrol compound in inhibiting melanin production as relative to commercial oxyresveratrol extracted from plant sources.

Row | SMILES | Melanin content (%), Mean (TA conc. 32 μM) | Melanin content (%), Mean (TA conc. 128 μM) | Inhibitory activity on melanin production compared with the commercial material (in words) (e.g., at 128 μM) | Inhibition of melanin production induced by α-MSH (in words) (32 and 128 μM)
1 | Oc1cc(O)cc(/C=C/c2ccc(O)cc2O)c1 [Synthetic, oxyresveratrol] | 75.7% | 38.5% | greater inhibitory activity | –
2 | Oc1cc(O)cc(/C=C/c2ccc(O)cc2O)c1 [Commercial, oxyresveratrol] | 77.4% | 45.5% | – | inhibited melanin production
